Results published in ChEMBL document CHEMBL1201862, “PubChem BioAssay data set” (2004).
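Compound exposure: 48 hours, 5 concentrations, 96-well plates. Here, GI50 denotes the concentration required for 50% inhibition of growth.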 Calls of active or inactive are those of the source. Cut-off read from the data, not from the text of the source: active = GI50 up to about 1.1 µM and inactive = higher.

Columns and labels:
Test in all cases: DTP human tumour cell line panel, 48 h
786-0 = system: 786-0
A498 = system: A498
A549 = system: A549
ACHN = system: ACHN
CCRF-CEM = system: CCRF-CEM
COLO 205 = system: COLO 205
DLD-1 = system: DLD-1
DMS-114 = system: DMS-114
EKVX = system: EKVX
HCC 2998 = system: HCC 2998
HCT-116 = system: HCT-116
HL-60 = system: HL-60
HOP-18 = system: HOP-18
HOP-62 = system: HOP-62
HOP-92 = system: HOP-92
HT-29 = system: HT-29
IGROV-1 = system: IGROV-1
K562 = system: K562
KM-20L2 = system: KM-20L2
KM12 = system: KM12
LOX IMVI = system: LOX IMVI
LXFL 529 = system: LXFL 529
M14 = system: M14
M19-MEL = system: M19-MEL
MOLT-4 = system: MOLT-4
Malme-3M = system: Malme-3M
NCI-H226 = system: NCI-H226
NCI-H23 = system: NCI-H23
NCI-H460 = system: NCI-H460
NCI-H522 = system: NCI-H522
OVCAR-3 = system: OVCAR-3
OVCAR-4 = system: OVCAR-4
OVCAR-8 = system: OVCAR-8
RPMI-8226 = system: RPMI-8226
RXF 393 = system: RXF 393
SF-268 = system: SF-268
SF-295 = system: SF-295
SF-539 = system: SF-539
SK-MEL-28 = system: SK-MEL-28
SK-MEL-5 = system: SK-MEL-5
SK-OV-3 = system: SK-OV-3
SN12C = system: SN12C
SNB-19 = system: SNB-19
SNB-75 = system: SNB-75
SNB-78 = system: SNB-78
SR = system: SR
SW-620 = system: SW-620
TK-10 = system: TK-10
U-251 = system: U-251
UACC-257 = system: UACC-257
UACC-62 = system: UACC-62
UO-31 = system: UO-31
XF498 = system: XF498
CAKI-1 = system: CAKI-1
DMS-273 = system: DMS-273
HCT-15 = system: HCT-15
MCF7 = system: MCF7
NCI/ADR-RES = system: NCI/ADR-RES
SK-MEL-2 = system: SK-MEL-2

## COC1(OC)CC2C(=O)N(Cc3ccccc3)C1C=C2S(=O)(=O)c1ccccc1 (configuration not stated)
786-0
  GI50: 19.7 µM (inactive)
A498
  GI50: 20 µM (inactive)
A549
  GI50: 21.9 µM (inactive)
ACHN
  GI50: 20.8 µM (inactive)
CCRF-CEM
  GI50: 14.9 µM (inactive)
COLO 205
  GI50: 10.2 µM (inactive)
DLD-1
  GI50: 12.7 µM (inactive)
DMS-114
  GI50: 17.2 µM (inactive)
EKVX
  GI50: 15.6 µM (inactive)
HCC 2998
  GI50: 19.5 µM (inactive)
HCT-116
  GI50: 13.8 µM (inactive)
HL-60
  GI50: 11.7 µM (inactive)
HOP-18
  GI50: 17.1 µM (inactive)
HOP-62
  GI50: 38.8 µM (inactive)
HOP-92
  GI50: 24.1 µM (inactive)
HT-29
  GI50: 18.5 µM (inactive)
IGROV-1
  GI50: 32.9 µM (inactive)
K562
  GI50: 22.5 µM (inactive)
KM-20L2
  GI50: 18.8 µM (inactive)
KM12
  GI50: 17.4 µM (inactive)
LOX IMVI
  GI50: 13.4 µM (inactive)
LXFL 529
  GI50: 15.6 µM (inactive)
M14
  GI50: 16.1 µM (inactive)
M19-MEL
  GI50: 16 µM (inactive)
MOLT-4
  GI50: 16.5 µM (inactive)
Malme-3M
  GI50: 20.4 µM (inactive)
NCI-H226
  GI50: 27.9 µM (inactive)
NCI-H23
  GI50: 18 µM (inactive)
NCI-H460
  GI50: 18.2 µM (inactive)
NCI-H522
  GI50: 13.9 µM (inactive)
OVCAR-3
  GI50: 14.8 µM (inactive)
OVCAR-4
  GI50: 20.5 µM (inactive)
OVCAR-8
  GI50: 17.9 µM (inactive)
RPMI-8226
  GI50: 21 µM (inactive)
RXF 393
  GI50: 12.7 µM (inactive)
SF-268
  GI50: 37 µM (inactive)
SF-295
  GI50: 28.5 µM (inactive)
SF-539
  GI50: 17 µM (inactive)
SK-MEL-28
  GI50: 17.5 µM (inactive)
SK-MEL-5
  GI50: 13.8 µM (inactive)
SK-OV-3
  GI50: 47.5 µM (inactive)
SN12C
  GI50: 16.4 µM (inactive)
SNB-19
  GI50: 24 µM (inactive)
SNB-75
  GI50: 28.8 µM (inactive)
SNB-78
  GI50: 21.8 µM (inactive)
SR
  GI50: 15 µM (inactive)
SW-620
  GI50: 15.2 µM (inactive)
TK-10
  GI50: 25.1 µM (inactive)
U-251
  GI50: 15.5 µM (inactive)
UACC-257
  GI50: 16.9 µM (inactive)
UACC-62
  GI50: 16.7 µM (inactive)
UO-31
  GI50: 25 µM (inactive)
XF498
  GI50: 17.8 µM (inactive)

## CN(c1ccccc1)c1c(-c2ccccc2)c(=O)oc2c1ccc1occc12
A498
  GI50: > 100 µM (inactive)
A549
  GI50: > 100 µM (inactive)
CAKI-1
  GI50: 36.2 µM (inactive)
CCRF-CEM
  GI50: > 100 µM (inactive)
COLO 205
  GI50: > 100 µM (inactive)
DLD-1
  GI50: > 100 µM (inactive)
DMS-114
  GI50: > 100 µM (inactive)
DMS-273
  GI50: > 100 µM (inactive)
EKVX
  GI50: > 100 µM (inactive)
HCC 2998
  GI50: > 100 µM (inactive)
HCT-116
  GI50: > 100 µM (inactive)
HCT-15
  GI50: > 88.5 µM
HL-60
  GI50: 39.7 µM (inactive)
HOP-18
  GI50: > 100 µM (inactive)
HOP-62
  GI50: > 100 µM (inactive)
HT-29
  GI50: > 95.7 µM (inactive)
IGROV-1
  GI50: > 100 µM (inactive)
K562
  GI50: > 100 µM (inactive)
KM12
  GI50: > 100 µM (inactive)
LOX IMVI
  GI50: > 100 µM (inactive)
M19-MEL
  GI50: > 100 µM (inactive)
MCF7
  GI50: > 100 µM (inactive)
MOLT-4
  GI50: 22.2 µM (inactive)
Malme-3M
  GI50: > 100 µM (inactive)
NCI-H226
  GI50: 0.348 µM (active)
NCI-H23
  GI50: > 100 µM (inactive)
NCI-H460
  GI50: > 76.7 µM (inactive)
NCI-H522
  GI50: > 100 µM (inactive)
NCI/ADR-RES
  GI50: > 100 µM (inactive)
OVCAR-3
  GI50: > 100 µM (inactive)
OVCAR-4
  GI50: > 81.8 µM (inactive)
OVCAR-8
  GI50: > 100 µM (inactive)
RXF 393
  GI50: > 92.3 µM (inactive)
SF-268
  GI50: > 100 µM (inactive)
SF-295
  GI50: > 100 µM (inactive)
SF-539
  GI50: > 100 µM (inactive)
SK-MEL-28
  GI50: > 100 µM (inactive)
SK-MEL-2
  GI50: > 100 µM (inactive)
SK-MEL-5
  GI50: > 100 µM (inactive)
SK-OV-3
  GI50: > 100 µM (inactive)
SN12C
  GI50: > 100 µM (inactive)
SNB-19
  GI50: > 100 µM (inactive)
SNB-75
  GI50: > 100 µM (inactive)
SNB-78
  GI50: > 100 µM (inactive)
SW-620
  GI50: > 100 µM (inactive)
U-251
  GI50: > 100 µM (inactive)
UACC-257
  GI50: > 100 µM (inactive)
UACC-62
  GI50: > 100 µM (inactive)
UO-31
  GI50: > 100 µM (inactive)
